According to PubChem BioAssay (NCI):
Values joined by “and” are separate entries in the source; they are usually repeats but may differ in a detail not shown here. Equal values may be shown once.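 Tested at 5 concentrations; 48 h exposure; 96-well plates; endpoints linearly interpolated, else capped at highest concentration. GI50 = concentration required for 50% inhibition of growth. TGI: total growth inhibition.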

How the values were obtained:
Assay in all cases: NCI tumour cell line growth inhibition, 48 h
SK-OV-3 ovarian = tested on: SK-OV-3 ovarian
SNB-78 CNS = tested on: SNB-78 CNS
NCI-H23 lung = tested on: NCI-H23 lung
CAKI-1 renal = tested on: CAKI-1 renal
NCI-H522 lung = tested on: NCI-H522 lung
RPMI-8226 leukemia = tested on: RPMI-8226 leukemia
P388/ADR leukemia = tested on: P388/ADR leukemia
OVCAR-5 ovarian = tested on: OVCAR-5 ovarian
SK-MEL-2 melanoma = tested on: SK-MEL-2 melanoma
DMS 114 small cell lung = tested on: DMS 114 small cell lung
NCI/ADR-RES ovarian = tested on: NCI/ADR-RES ovarian
SW-620 colon = tested on: SW-620 colon
UO-31 renal = tested on: UO-31 renal
SK-MEL-5 melanoma = tested on: SK-MEL-5 melanoma
SF-268 CNS = tested on: SF-268 CNS
OVCAR-4 ovarian = tested on: OVCAR-4 ovarian
OVCAR-8 ovarian = tested on: OVCAR-8 ovarian
HT29 colon = tested on: HT29 colon
M19-MEL melanoma = tested on: M19-MEL melanoma
COLO 205 colon = tested on: COLO 205 colon
UACC-257 melanoma = tested on: UACC-257 melanoma
HCT-116 colon = tested on: HCT-116 colon
KM20L2 colon = tested on: KM20L2 colon
SF-539 CNS = tested on: SF-539 CNS
LOX IMVI melanoma = tested on: LOX IMVI melanoma
HL-60(TB) leukemia = tested on: HL-60(TB) leukemia
MCF7 breast = tested on: MCF7 breast
DMS 273 small cell lung = tested on: DMS 273 small cell lung
NCI-H460 lung = tested on: NCI-H460 lung
KM12 colon = tested on: KM12 colon
UACC-62 melanoma = tested on: UACC-62 melanoma
RXF 393 renal = tested on: RXF 393 renal
HOP-92 NSCLC = tested on: HOP-92 NSCLC
MOLT-4 leukemia = tested on: MOLT-4 leukemia
SNB-75 CNS = tested on: SNB-75 CNS
A498 renal = tested on: A498 renal
SN12C renal = tested on: SN12C renal
K-562 leukemia = tested on: K-562 leukemia
OVCAR-3 ovarian = tested on: OVCAR-3 ovarian
U251 CNS = tested on: U251 CNS
HOP-62 NSCLC = tested on: HOP-62 NSCLC
CCRF-CEM leukemia = tested on: CCRF-CEM leukemia
HOP-18 NSCLC = tested on: HOP-18 NSCLC
DLD-1 colon = tested on: DLD-1 colon
SNB-19 CNS = tested on: SNB-19 CNS
SF-295 CNS = tested on: SF-295 CNS
HCC-2998 colon = tested on: HCC-2998 colon
EKVX NSCLC = tested on: EKVX NSCLC
P388 leukemia = tested on: P388 leukemia
IGROV1 ovarian = tested on: IGROV1 ovarian
HCT-15 colon = tested on: HCT-15 colon
A549 NSCLC = tested on: A549 NSCLC
SN12K1 renal = tested on: SN12K1 renal
SK-MEL-28 melanoma = tested on: SK-MEL-28 melanoma
NCI-H226 lung = tested on: NCI-H226 lung

Question: Which GI50 (SK-OV-3 ovarian) does the source give for CC12CCC3C(CCC4=CC(O)CCC43C=O)C1(O)CCC2c1ccc(=O)oc1 (stereo unspecified) here?
Answer: 50 nM

Question: What about the TGI (SK-OV-3 ovarian) of the same molecule?
Answer: 40.4 nM and 71.3 nM

Question: What about the GI50 (SNB-78 CNS) of the same molecule?
Answer: 50 nM

Question: What about the TGI (SNB-78 CNS) of the same molecule?
Answer: 202 nM and 63.5 nM

Question: What about the TGI (NCI-H23 lung) of the same molecule?
Answer: 15.1 nM

Question: What about the GI50 (CAKI-1 renal) of the same molecule?
Answer: 8 nM

Question: What about the TGI (CAKI-1 renal) of the same molecule?
Answer: 62.7 nM

Question: And the TGI (NCI-H522 lung)?
Answer: 7.41 nM

Question: And the GI50 (RPMI-8226 leukemia)?
Answer: 23.8 nM

Question: What about the TGI (RPMI-8226 leukemia) of the same molecule?
Answer: 237 nM and 273 nM

Question: And the GI50 (P388/ADR leukemia)?
Answer: 89 µM

Question: What about the GI50 (OVCAR-5 ovarian) of the same molecule?
Answer: 5.11 nM

Question: What about the GI50 (SK-MEL-2 melanoma) of the same molecule?
Answer: 50 nM

Question: And the TGI (SK-MEL-2 melanoma)?
Answer: 48.3 nM and 81.5 nM

Question: What about the TGI (DMS 114 small cell lung) of the same molecule?
Answer: 9.96 nM

Question: What about the GI50 (NCI/ADR-RES ovarian) of the same molecule?
Answer: 50 nM

Question: What about the TGI (NCI/ADR-RES ovarian) of the same molecule?
Answer: 196 nM and 53.3 nM

Question: What about the GI50 (SW-620 colon) of the same molecule?
Answer: 9.09 nM

Question: And the TGI (SW-620 colon)?
Answer: 96.7 nM and 62 nM

Question: What about the GI50 (UO-31 renal) of the same molecule?
Answer: 50 nM

Question: And the TGI (UO-31 renal)?
Answer: 127 nM and 57 nM

Question: And the TGI (SK-MEL-5 melanoma)?
Answer: 20.1 nM

Question: What about the GI50 (SF-268 CNS) of the same molecule?
Answer: 1.53 nM

Question: And the TGI (SF-268 CNS)?
Answer: 15.4 nM

Question: What about the TGI (OVCAR-4 ovarian) of the same molecule?
Answer: 25.3 nM

Question: What about the GI50 (OVCAR-8 ovarian) of the same molecule?
Answer: 50 nM

Question: What about the TGI (OVCAR-8 ovarian) of the same molecule?
Answer: 53.2 nM and 52.6 nM

Question: What about the GI50 (HT29 colon) of the same molecule?
Answer: 66.7 nM

Question: What about the GI50 (M19-MEL melanoma) of the same molecule?
Answer: 50 nM

Question: What about the TGI (M19-MEL melanoma) of the same molecule?
Answer: 72 nM and 61 nM

Question: What about the GI50 (COLO 205 colon) of the same molecule?
Answer: 50 nM

Question: And the TGI (COLO 205 colon)?
Answer: 59.6 nM and 90.9 nM

Question: What about the GI50 (UACC-257 melanoma) of the same molecule?
Answer: 50 nM

Question: And the GI50 (HCT-116 colon)?
Answer: 4.53 nM

Question: What about the TGI (HCT-116 colon) of the same molecule?
Answer: 32.7 nM and 58.3 nM

Question: What about the GI50 (KM20L2 colon) of the same molecule?
Answer: 50 nM

Question: What about the TGI (KM20L2 colon) of the same molecule?
Answer: 36.5 nM and 56.2 nM

Question: What about the GI50 (SF-539 CNS) of the same molecule?
Answer: 50 nM

Question: What about the TGI (SF-539 CNS) of the same molecule?
Answer: 11.5 nM and 51.5 nM

Question: And the GI50 (LOX IMVI melanoma)?
Answer: 50 nM

Question: And the GI50 (HL-60(TB) leukemia)?
Answer: 50 nM

Question: What about the GI50 (MCF7 breast) of the same molecule?
Answer: 4.03 nM

Question: And the TGI (MCF7 breast)?
Answer: 20.9 nM and 72.1 nM

Question: What about the TGI (DMS 273 small cell lung) of the same molecule?
Answer: 22.8 nM

Question: What about the TGI (NCI-H460 lung) of the same molecule?
Answer: 13.1 nM

Question: What about the GI50 (KM12 colon) of the same molecule?
Answer: 50 nM

Question: What about the TGI (KM12 colon) of the same molecule?
Answer: 93.5 nM and 83.2 nM

Question: What about the GI50 (UACC-62 melanoma) of the same molecule?
Answer: 9.32 nM

Question: What about the TGI (UACC-62 melanoma) of the same molecule?
Answer: 32.9 nM and 52.1 nM

Question: And the GI50 (RXF 393 renal)?
Answer: 1.27 nM

Question: And the TGI (RXF 393 renal)?
Answer: 8.01 nM

Question: And the TGI (HOP-92 NSCLC)?
Answer: 40.4 nM

Question: What about the GI50 (MOLT-4 leukemia) of the same molecule?
Answer: 12.9 nM

Question: And the TGI (MOLT-4 leukemia)?
Answer: 40.1 nM

Question: What about the GI50 (SNB-75 CNS) of the same molecule?
Answer: 50 nM

Question: And the TGI (SNB-75 CNS)?
Answer: 54.4 nM and 52.3 nM

Question: What about the GI50 (A498 renal) of the same molecule?
Answer: 50 nM

Question: What about the TGI (A498 renal) of the same molecule?
Answer: 41.8 nM and 113 nM

Question: And the GI50 (SN12C renal)?
Answer: 50 nM

Question: And the GI50 (K-562 leukemia)?
Answer: 27.4 nM

Question: What about the TGI (K-562 leukemia) of the same molecule?
Answer: 247 nM and 143 nM

Question: What about the TGI (OVCAR-3 ovarian) of the same molecule?
Answer: 15.3 nM

Question: And the GI50 (U251 CNS)?
Answer: 50 nM

Question: And the TGI (U251 CNS)?
Answer: 29.2 nM and 64 nM

Question: What about the GI50 (HOP-62 NSCLC) of the same molecule?
Answer: 1.58 nM

Question: What about the TGI (HOP-62 NSCLC) of the same molecule?
Answer: 14.7 nM and 57.3 nM

Question: What about the GI50 (CCRF-CEM leukemia) of the same molecule?
Answer: 11.5 nM and 50 nM

Question: And the TGI (CCRF-CEM leukemia)?
Answer: 129 nM and 523 nM

Question: What about the TGI (HOP-18 NSCLC) of the same molecule?
Answer: 46.1 nM

Question: And the GI50 (DLD-1 colon)?
Answer: 7.69 nM

Question: And the TGI (DLD-1 colon)?
Answer: 57.1 nM

Question: What about the GI50 (SNB-19 CNS) of the same molecule?
Answer: 50 nM

Question: What about the TGI (SNB-19 CNS) of the same molecule?
Answer: 22.4 nM and 101 nM

Question: And the GI50 (SF-295 CNS)?
Answer: 50 nM

Question: And the TGI (SF-295 CNS)?
Answer: 46.6 nM and 107 nM

Question: And the GI50 (HCC-2998 colon)?
Answer: 59.1 nM

Question: What about the TGI (HCC-2998 colon) of the same molecule?
Answer: 66.5 nM and 220 nM

Question: And the TGI (EKVX NSCLC)?
Answer: 59 nM

Question: And the GI50 (P388 leukemia)?
Answer: 80.6 µM

Question: And the GI50 (IGROV1 ovarian)?
Answer: 50 nM

Question: And the TGI (IGROV1 ovarian)?
Answer: 93.6 nM and 141 nM

Question: What about the GI50 (HCT-15 colon) of the same molecule?
Answer: 12.5 nM

Question: What about the TGI (HCT-15 colon) of the same molecule?
Answer: 107 nM and 62.2 nM

Question: What about the GI50 (A549 NSCLC) of the same molecule?
Answer: 4.52 nM

Question: And the TGI (A549 NSCLC)?
Answer: 20 nM

Question: What about the GI50 (SN12K1 renal) of the same molecule?
Answer: 7.53 nM

Question: What about the TGI (SN12K1 renal) of the same molecule?
Answer: 28.6 nM and 53.1 nM

Question: And the GI50 (SK-MEL-28 melanoma)?
Answer: 7.66 nM

Question: What about the TGI (SK-MEL-28 melanoma) of the same molecule?
Answer: 140 nM and 104 nM

Question: What about the GI50 (NCI-H226 lung) of the same molecule?
Answer: 86.6 nM

Question: And the TGI (NCI-H226 lung)?
Answer: 83.1 nM and 210 nM
